In data set [1] the test system is Melanocyte. Kind of data set: Cytotoxicity against human non-TF expressing melanocytes at 4 uM. The data set is classed as functional, cell-based.
The subject of data set [2] is RPMI-7951. The experiment in a line: Cytotoxicity against human TF expressing RPMI7951 cell line at 2 uM. The data set is classed as functional, cell-based.
For the next data set, the system named is MDA-MB-231. Kind of data set: Viability of human TF expressing MDA-MB-231 cell line. In kind it is cell-based.
Data set [3] has as its system Melanocyte. The experiment in a line: Viability of human non-TF expressing melanocytes. In kind it is cell-based.
The nature of data set [4]: Viability of human non-TF expressing MCF10 cell line. Particulars: MCF10 cells (non-TF expressing); call rule not given here. In kind it is cell-based.
Data set [5] relates to RPMI-7951. The experiment in a line: Viability of human TF expressing RPMI7951 cell line. The data set is classed as cell-based.

Our source for the Activity and viability values is ChEMBL document CHEMBL1147811, “Synthesis of EF24-tripeptide chloromethyl ketone: a novel curcumin-related anticancer drug delivery system” (J Med Chem, 2006).

A value given as a limit tells only on which side of the number the result lay.

Regarding `O=C1/C(=C/c2ccccc2F)CNC/C1=C\c1ccccc1F`, the Activity entry with Melanocyte [1] and with RPMI-7951 [2] was “Toxic” each time.

Turning to `N=C(N)NCCC[C@H](NC(=O)[C@H](Cc1ccccc1)NC(=O)[C@H](Cc1ccccc1)NC(=O)CCC(=O)N1C/C(=C\c2ccccc2F)C(=O)/C(=C/c2ccccc2F)C1)C(=O)CCl.O=C(O)C(F)(F)F`, the Activity result with MDA-MB-231, in the data set with Melanocyte [3] and with RPMI-7951 [5] was “Not Active” each time. For the same molecule, in data set [4], the viability is more than 95%.
